Values quoted from earlier work in patent US20250091981A1, “PROCESS FOR THE PURIFICATION OF 5-AMINOSALICYLIC ACID” (CHEMI S.P.A., priority 2022, published 2025).

What was measured:
[1] = value reported in the literature
[2] = established in the guidelines

Row | SMILES | isoelectric pH [1] | maximum daily intake limit [2] [ng]
1 | Nc1ccc(O)c(C(=O)O)c1 [Example 5-ASA, 5-Amino salicylic acid] | 3.7 | –
2 | CCN(CC)N=O [NDEA, N,N-diethyl-nitrosamine] | – | 26.5
